In patent US20250195463A1, “ORGANOMETALLIC COMPLEX, CONTROLLED-RELEASE MULTI-FUNCTIONAL DRUG, PHARMACEUTICAL COMPOSITION, PROCESSES FOR THE PREPARATION THEREOF AND THEIR USE” (FACULDADE DE CIÊNCIAS DA UNIVERSIDADE DE LISBOA, priority 2022, published 2025):

Tests used:
MDA-MB-231 (FGFR−) = test: MTT cytotoxicity assay; details: MDA-MB-231
Description: By way of example, the in vitro cytotoxicity of the conjugate RuPC1, complex 4 and peptide P2 was determined in four human breast cancer cell lines with different levels of expression of the receptor FGFR, namely MDA-MB-231 (FGFR−), MCF-7 (FGFR−), SK-BR-3 (FGFR+), and MDA-MB-134-VI (FGFR+). The cytotoxicity of RuPC1 was also determined in the stated cell lines at controlled pH 6.8 and 7.4. The cytotoxicity of the complexes 5, 8, 9, and the reference complex (2,2′-bipyridyl)(triphenylphosphane)(f-cyclopentadienyl)ruthenium(II) trifluoromethanesulfonate, [RuCp(PPh3)(bipy)][CF3SO3] (TM34) was only determined in the cell line MDA-MB-231. All the cell lines were from the American Type Culture Collection (ATCC) and were cultured in Dulbecco's Modified Eagle Medium+Glutamax-I (Gibco) supplemented with 10% fetal bovine serum (FBS) and 1% antibiotics, excepting the MDA-MB-134-VI for which it was used the double amount of FBS. The cell cultures were kept in an incubator Heraeus at 37° C. under humidified atmosphere at 5% CO2. The cell viability was evaluated resorting to the MTT ([3-(4,5-dimethylthiazol-2-yl)-2,5-diphenyltetrazolium bromide]) colorimetric assay, which is based on the reduction of the tetrazolium salt to purple formazan by mitochondrial dehydrogenases in metabolically active cells. For the assays, the cells were seeded in 96-well plates (2×10^4 to 3×10^4 cells/200 μL) and allowed to adhere overnight. The compounds were first dissolved in dimethyl sulfoxide to obtain 10 mM stock solutions, further used to prepare the working solutions, at 0.1 to 100 μM, by dilution in the cell culture medium. Alternatively, for the assays at controlled pH 6.8 and 7.4, RuPC1 was first dissolved in a solution of 15% dimethyl sulfoxide/85% phosphate buffer (10 mM in water) to obtain 1.5 mM stock solutions further incubated for 48 hours at both pH values prior to be used to prepare the working solutions, at 0.1 to 50 μM, by dilution in the cell culture medium. In both cases, after continuous exposure of the cells to the compounds for 48 h at 37° C., the medium was removed and the cells were incubated with 200 μL of MTT solution (0.5 mg/mL) for 3 h. Then, the solution was discarded and the purple formazan formed by the viable cells was dissolved in 200 μL of dimethyl sulfoxide. The cell viability (%) was determined relative to the control (cells incubated without compounds) by measuring the absorbance at 570 nm on a PowerWave Xs Bio-Tek Instruments plate spectrophotometer. The respective values of the half maximal inhibitory concentration (IC50) were calculated with the software GraphPad Prism. All the compounds were tested in at least two independent experiments, each comprising six replicates per concentration.

[1] = Stability in aqueous medium (dimethyl sulfoxide/Dulbecco's Modified Eagle Medium) by UV-Vis spectroscopy; format: physicochemical; details: 5% dimethyl sulfoxide/95% Dulbecco's Modified Eagle Medium; for Relative variation of the maximum absorbance of the π→π* transitions: band 292-296 nm (λmax in column head); for Relative variation of the maximum absorbance of the charge transfer bands: band 358-400 nm (λmax in column head)
Summary of the method: (§1)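 UV-Vis spectra (270-900 nm) were recorded at intervals from 0 to 24 h, at room temperature in the dark. Solvents were 100% DMSO, or 5% or 10% DMSO in DMEM depending on complex, at 7.0×10^-5 M to 3.0×10^-4 M.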

[2] = Stability in organic medium (dimethyl sulfoxide) by UV-Vis spectroscopy; format: physicochemical; details: for Relative variation of the maximum absorbance of the π→π* transitions: band 289-300 nm (λmax in column head); for Relative variation of the maximum absorbance of the charge transfer bands: band 357-425 nm (λmax in column head)
Summary of the method: as §1

## CC(=O)C1=C[CH]([Ru-]2([PH](c3ccccc3)(c3ccccc3)c3ccccc3)[n+]3ccccc3-c3cccc[n+]32)C=C1.O=S(=O)([O-])C(F)(F)F (stereo not shown) [compound 5]
MDA-MB-231 (FGFR−); Example 24
  IC50 range in words: sub-micromolar range
MDA-MB-231 (FGFR−); read-out: Cytotoxic activity expressed as IC50, Table 5, 48 h, 37° C.
  IC50: 360 nM
[1]; time 0 h
  Relative variation of the maximum absorbance of the π→π* transitions: 0.0%
  Relative variation of the maximum absorbance of the charge transfer bands: 0.0%
[1]; time 0.25 h
  Relative variation of the maximum absorbance of the π→π* transitions: 0.6%
  Relative variation of the maximum absorbance of the charge transfer bands: −1.0%
[1]; time 0.5 h
  Relative variation of the maximum absorbance of the π→π* transitions: −0.1%
  Relative variation of the maximum absorbance of the charge transfer bands: −2.1%
[1]; time 0.75 h
  Relative variation of the maximum absorbance of the π→π* transitions: 0.3%
  Relative variation of the maximum absorbance of the charge transfer bands: −2.7%
[1]; time 1 h
  Relative variation of the maximum absorbance of the π→π* transitions: 0.0%
  Relative variation of the maximum absorbance of the charge transfer bands: −3.4%
[1]; time 2 h
  Relative variation of the maximum absorbance of the π→π* transitions: 1.0%
  Relative variation of the maximum absorbance of the charge transfer bands: −1.2%
[1]; time 3 h
  Relative variation of the maximum absorbance of the π→π* transitions: 0.7%
  Relative variation of the maximum absorbance of the charge transfer bands: −3.4%
[1]; time 4 h
  Relative variation of the maximum absorbance of the π→π* transitions: 0.7%
  Relative variation of the maximum absorbance of the charge transfer bands: −4.1%
[1]; time 5 h
  Relative variation of the maximum absorbance of the π→π* transitions: 0.7%
  Relative variation of the maximum absorbance of the charge transfer bands: −5.1%
[1]; time 6 h
  Relative variation of the maximum absorbance of the π→π* transitions: 2.1%
  Relative variation of the maximum absorbance of the charge transfer bands: 0.3%
[1]; time 24 h
  Relative variation of the maximum absorbance of the π→π* transitions: −1.8%
  Relative variation of the maximum absorbance of the charge transfer bands: −3.0%
[2]; time 0 h
  Relative variation of the maximum absorbance of the π→π* transitions: 0.0%
  Relative variation of the maximum absorbance of the charge transfer bands: 0.0%
[2]; time 0.25 h
  Relative variation of the maximum absorbance of the π→π* transitions: 0.3%
  Relative variation of the maximum absorbance of the charge transfer bands: 0.1%
[2]; time 0.5 h
  Relative variation of the maximum absorbance of the π→π* transitions: −0.5%
  Relative variation of the maximum absorbance of the charge transfer bands: 0.0%
[2]; time 0.75 h
  Relative variation of the maximum absorbance of the π→π* transitions: −0.4%
  Relative variation of the maximum absorbance of the charge transfer bands: 0.2%
[2]; time 1 h
  Relative variation of the maximum absorbance of the π→π* transitions: −0.3%
  Relative variation of the maximum absorbance of the charge transfer bands: 0.1%
[2]; time 2 h
  Relative variation of the maximum absorbance of the π→π* transitions: −0.9%
  Relative variation of the maximum absorbance of the charge transfer bands: 0.3%
[2]; time 3 h
  Relative variation of the maximum absorbance of the π→π* transitions: −1.2%
  Relative variation of the maximum absorbance of the charge transfer bands: 0.3%
[2]; time 4 h
  Relative variation of the maximum absorbance of the π→π* transitions: −1.2%
  Relative variation of the maximum absorbance of the charge transfer bands: 0.3%
[2]; time 5 h
  Relative variation of the maximum absorbance of the π→π* transitions: −1.5%
  Relative variation of the maximum absorbance of the charge transfer bands: 0.5%
[2]; time 6 h
  Relative variation of the maximum absorbance of the π→π* transitions: −1.5%
  Relative variation of the maximum absorbance of the charge transfer bands: 0.2%
[2]; time 24 h
  Relative variation of the maximum absorbance of the π→π* transitions: −1.9%
  Relative variation of the maximum absorbance of the charge transfer bands: 0.3%
